Results taken from ChEMBL document CHEMBL4828769, “Discovery of AS-0141, a Potent and Selective Inhibitor of CDC7 Kinase for the Treatment of Solid Cancers” (J Med Chem, 2021).

Legend:
[1] = target: Cell division cycle 7-related protein kinase (Homo sapiens, UniProt O00311); assay: Reversible inhibition of human CDC7 assessed as off-rate preincubated for 50 mins followed by substrate addition in presence of ATP by rapid dilution assay
[2] = Metabolic stability in dog liver microsomes assessed as parent compound remaining after 30 mins; type: ADME, Canis lupus familiaris, Microsome; conditions: read-out: Stability
[3] = target: Glycogen synthase kinase-3 alpha (Homo sapiens, UniProt P49840); assay: Inhibition of GSK3alpha (unknown origin) at 0.1 uM in presence of 1 mM ATP relative to control
Homo sapiens [4] = organism: Homo sapiens; assay: Selectivity index, ratio of IC50 for inhibition of human CDC7 in presence of 1 mM ATP without preincubation to IC50 for inhibition of human CDC7 using FITC-labelled MCM2 substrate preincubated for 30 mins followed by substrate addition and measured after 5 hrs in presence of 1 mM ATP
[5] = target: Serine/threonine-protein kinase pim-1 (Homo sapiens, UniProt P11309); assay: Inhibition of PIM1 (unknown origin) in presence of 1 mM ATP with preincubation
Homo sapiens [6] = organism: Homo sapiens; assay: Selectivity index, ratio of IC50 for PIM1 (unknown origin) in presence of 1 mM ATP without preincubation to IC50 for PIM1 (unknown origin) in presence of 1 mM ATP with preincubation
SW-620 [7] = assay: Induction of apoptosis in human SW-620 cells assessed as increase in cleaved caspase 3 level incubated for 48 hrs by Western blot analysis; type: functional, cell-based; conditions: dose 0.03-1 µM
SW-620 [8] = assay: Induction of apoptosis in human SW-620 cells assessed as increase in cleaved PARP level incubated for 48 hrs by Western blot analysis; type: functional, cell-based; conditions: dose 0.03-1 µM
SW-620 [9] = assay: Induction of apoptosis in human SW-620 cells assessed as increase in gamma-H2AX level incubated for 48 hrs by Western blot analysis; type: functional, cell-based; conditions: dose 0.03-1 µM
[10] = Half life in mouse at 1 mg/kg, iv; type: ADME, organism-based; conditions: in vivo
[11] = Half life in rat at 2 mg/kg, iv; type: ADME, organism-based; conditions: in vivo
[12] = Half life in dog at 1 mg/kg, iv; type: ADME, organism-based, Canis lupus familiaris; conditions: in vivo
[13] = Half life in dog at 2 mg/kg, po; type: ADME, organism-based, Canis lupus familiaris; conditions: in vivo
[14] = Cmax in mouse at 1 mg/kg, iv; type: ADME, organism-based; set-up: route intravenous, dose 1 mg/kg; conditions: in vivo
[15] = AUC(0 to infinity) in mouse at 1 mg/kg, iv; type: ADME, organism-based; set-up: route intravenous, time infinity, dose 1 mg/kg; conditions: in vivo
[16] = AUC(0 to infinity) in rat at 10 mg/kg, po; type: ADME, organism-based; set-up: time infinity, route oral, dose 10 mg/kg; conditions: in vivo
[17] = Volume of distribution in mouse at 1 mg/kg, iv; type: ADME, organism-based; conditions: in vivo
[18] = Clearance in mouse at 1 mg/kg, iv; type: ADME, organism-based; conditions: in vivo
[19] = Clearance in dog at 1 mg/kg, iv; type: ADME, organism-based, Canis lupus familiaris; conditions: in vivo
[20] = MRT in mouse at 1 mg/kg, iv; type: ADME, organism-based; conditions: in vivo
[21] = In vivo inhibition of CDC7 in human SW-620 cells xenografted in BALB/c nude mouse assessed as reduction in phosphorylation of MCM2 at Ser53 residue at 120 mg/kg, po measured after 8 hrs; type: functional; conditions: SW-620, po
[22] = In vivo inhibition of CDC7 in human SW-620 cells xenografted in BALB/c nude mouse assessed as reduction in phosphorylation of MCM2 at Ser53 residue at 120 mg/kg, po measured after 24 hrs; type: functional; conditions: SW-620, po

Cell division cycle 7-related protein kinase, sequence (O00311 whole entry, looked up): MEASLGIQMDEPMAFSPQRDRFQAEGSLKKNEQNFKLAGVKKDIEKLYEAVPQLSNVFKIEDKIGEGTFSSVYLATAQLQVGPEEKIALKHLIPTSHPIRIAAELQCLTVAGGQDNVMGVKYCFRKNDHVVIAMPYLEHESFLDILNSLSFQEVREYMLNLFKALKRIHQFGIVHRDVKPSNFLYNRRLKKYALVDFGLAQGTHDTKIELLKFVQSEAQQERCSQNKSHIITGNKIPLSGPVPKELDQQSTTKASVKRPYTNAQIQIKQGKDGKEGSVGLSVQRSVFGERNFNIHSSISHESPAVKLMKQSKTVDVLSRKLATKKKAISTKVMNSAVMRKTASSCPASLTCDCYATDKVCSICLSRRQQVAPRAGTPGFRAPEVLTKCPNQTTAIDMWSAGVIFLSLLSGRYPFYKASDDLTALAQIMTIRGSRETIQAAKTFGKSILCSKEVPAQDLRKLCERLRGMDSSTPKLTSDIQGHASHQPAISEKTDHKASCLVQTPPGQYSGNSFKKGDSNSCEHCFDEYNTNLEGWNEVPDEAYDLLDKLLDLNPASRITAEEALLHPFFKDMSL
Glycogen synthase kinase-3 alpha, sequence (P49840 2-483 limits assumed): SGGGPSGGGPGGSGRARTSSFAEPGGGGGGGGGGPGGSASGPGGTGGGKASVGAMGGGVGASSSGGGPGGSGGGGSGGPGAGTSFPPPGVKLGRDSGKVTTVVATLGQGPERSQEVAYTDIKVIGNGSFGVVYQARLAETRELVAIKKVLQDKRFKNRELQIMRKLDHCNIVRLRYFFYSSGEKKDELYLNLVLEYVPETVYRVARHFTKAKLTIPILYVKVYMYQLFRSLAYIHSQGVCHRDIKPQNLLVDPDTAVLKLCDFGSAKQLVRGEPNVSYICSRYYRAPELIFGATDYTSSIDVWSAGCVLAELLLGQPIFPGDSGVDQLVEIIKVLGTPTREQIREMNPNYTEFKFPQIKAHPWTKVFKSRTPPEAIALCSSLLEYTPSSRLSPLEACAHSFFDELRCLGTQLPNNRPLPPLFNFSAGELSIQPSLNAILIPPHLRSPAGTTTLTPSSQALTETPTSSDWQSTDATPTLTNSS
Serine/threonine-protein kinase pim-1, sequence (P11309 whole entry): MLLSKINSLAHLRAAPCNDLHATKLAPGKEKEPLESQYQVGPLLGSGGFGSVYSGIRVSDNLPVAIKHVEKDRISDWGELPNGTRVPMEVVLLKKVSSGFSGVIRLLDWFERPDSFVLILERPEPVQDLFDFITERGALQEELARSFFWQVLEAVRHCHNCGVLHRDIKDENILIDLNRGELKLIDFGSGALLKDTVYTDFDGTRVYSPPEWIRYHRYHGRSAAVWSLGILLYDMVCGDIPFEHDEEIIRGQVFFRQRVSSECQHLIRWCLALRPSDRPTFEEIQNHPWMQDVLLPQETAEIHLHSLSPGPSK

T1/2 [1]: 3.58 h
remaining at 0.5 h [2]: 81%
inhibition [3]: > 30%
Ratio IC50 (Homo sapiens [4]): 210
IC50 [5]: 34 nM
Ratio IC50 (Homo sapiens [6]): 0.9
half-life [10]: 0.32 h
half-life [11]: 3.01 h
half-life [12]: 4.8 h
half-life [13]: 4.19 h
Cmax [14]: 408 ng/mL
AUC(0-inf) [15]: 149 ng·h/mL
AUC(0-inf) [16]: 2410 ng·h/mL
Vd [17]: 3.1 L/kg
clearance [18]: 112 mL/min/kg
clearance [19]: 13.5 mL/min/kg
MRT [20]: 0.3 h
Compound: CCOC(=O)C1=C(NN2CCN(CC(F)(F)F)CC2)O/C(=C\c2c[nH]c3ncccc23)C1=O [MONZOSERTIB]
Activity (SW-620 [7]): Dose-Dependent Effect
Activity (SW-620 [8]): Dose-Dependent Effect
Activity (SW-620 [9]): Dose-Dependent Effect
inhibition in vivo at 120 mg/kg [21]: 83%
inhibition in vivo at 120 mg/kg [22]: 36%
